In US12152248B2, “Membrane-penetrating peptides to enhanced transfection and compositions and methods for using same” (LIFE TECHNOLOGIES CORPORATION, priority 2013, dated 2024):

Tests used:
Type in all cases: cell-based
HeLa cells [1] = experiment: GFP transfection with lipid alone, peptide alone or both (FIG. 8); conditions: 96-well, 48 hrs, Peptide 1 in the presence of LIPOFECTAMINE® 3000, 0.05-0.5 μl
Source text: FIG. 8 are bar graphs depicting relative transfection efficiency (upper graph, GFP+ as % of Single Cells Only) or relative expression level per cell (lower graph; Single cells Only Mean FL-1) of HeLa cells transfected with a GFP expression vector using the indicated doses (in μl) of LIPOFECTAMINE® 3000 alone (LF3K), LIPOFECTAMINE® 2000 (LF2K), a peptide according to an embodiment (Peptide 1) or LIPOFECTAMINE® 3000 in combination with a peptide according to an embodiment (LF3K+ Peptide 1);
HeLa cells were seeded onto 96-well plates and transfected for 48 hrs with […] of pcDNAEF1a/emGFP using either 0.05 μl, 0.1 μl, 0.2 μl, 0.3 μl, 0.4 μl, or 0.5 μl of LIPOFECTAMINE® 3000 Reagent alone (LF3K), LIPOFECTAMINE® 2000 (LF2K), Peptide 1 alone (Peptide 1), or LIPOFECTAMINE® 3000 in combination with Peptide 1 as described in Example 1 (LF3K+Peptide 1). Transfection efficiency and protein expression as measured by Fluorescence intensity (FL1-H) were determined. Results are depicted in FIG. 8.

[2] = tested on: HEK293, HeLa, COS-7, LNCaP, A549 and HepG2; experiment: Comparison of transfection reagents, GFP fluorescence images (FIG. 2); conditions: panel of six cell lines; pcDNAEF1a/emGFP; 48 hrs; Peptide 1 used with LIPOFECTAMINE® 3000
Experimental: Transfection complexes for transfecting DNA into cells in culture were prepared according to manufacturer protocol. LIPOFECTAMINE® 2000 and LIPIFECTAMINE® LTX were purchased from Life Technologies Corp. (Carlsbad, CA), FUGENE® HD was purchased from Promega Corp. (Fitchburg, WI), and X-TREMEGENE™ HP was purchased from Roche Diagnostics (Basel, Switzerland).
To prepare transfection complexes containing the non-naturally occurring peptides described above, Peptide 1 having the following sequence […] (SEQ ID NO. 89) was synthesized and provided as a dry powder. The dry powder was reconstituted in sterile ultrapure water to a final concentration of 4.35 mg/ml and allowed to fully dissolve. This stock peptide solution was set aside for use in the next step.
To prepare the lipid aggregate-DNA-peptide complexes, LIPOFECTAMINE® 3000 reagent (Life Technologies Corp., Carlsbad, CA) was obtained. […]
Following the incubation, the lipid-peptide-DNA complexes were added to cells that were seeded the previous day with fresh growth medium; for 96-well plates, 10 μl of the lipid-peptide-DNA was added to the cells, for 24-well plates, 50 μl of the lipid-peptide-DNA mixture was added to the cells, for 6-well plates, 250 μl of the lipid-peptide-DNA was added to the cells. The cells were incubated in the presence of the lipid-peptide-DNA for approximately 24-48 hrs, and analyzed. […]

HeLa cells [3] = experiment: Effect of transfection reagent dosage on transfection efficiency and GFP expression (FIG. 3); conditions: 96-well, 0.1-0.4 μl reagent, Peptide 1 with LIPOFECTAMINE® 3000 vs LIPOFECTAMINE® 2000 and LTX
Source text: (§1) FIG. 3A is a graph comparing the relative transfection efficiency for an expression vector encoding GFP transfected into cultured HeLa cells using increasing dosages of three different commercially available lipid aggregate formulations, LIPOFECTAMINE® 2000 (open circles), LIPOFECTAMINE® LTX (open squares), and LIPOFECTAMINE® 3000 in combination with a peptide according to an embodiment (open triangles);
as §1, with “3B” for “3A”, “intensity of GFP expression in HeLa cells transfected with” for “relative transfection efficiency for”, “GFP” for “GFP transfected into cultured HeLa cells”, “dosage” for “dosages”
HeLa cells were plated in 96-well plates and transfected with pcDNAEF1a/emGFP using 0.1 μl, 0.2 μl, 0.3 μl or 0.4 μl of LIPOFECTAMINE® 2000, LIPOFECTAMINE® LTX, or LIPOFECTAMINE® 3000 reagent in combination with Peptide 1 as described in Example 1. Transfection efficiency and relative protein expression as measured by […] was determine for each condition. […]

Sequence: SRRARRSPRESGKKRKRKRGGGSGGGSGGGSRRRRRRRRRRR [Peptide 1, 89; MPP DPV10/6 fused to Linker 1 and cationic CP1]
- transfection efficiency and protein expression (FIG. 8) (HeLa cells [1]): significantly enhances transfection efficiency and protein expression
- transfection efficiency (GFP expression, FIG. 2) [2]: improved transfection efficiency substantially
- relative expression of GFP (FIG. 3B) (HeLa cells [3]): improves relative expression of GFP in the cells over the entire range of transfection reagent dosages tested
- relative transfection efficiency (FIG. 3A) (HeLa cells [3]): improves transfection efficiency of the cells over the entire range of transfection reagent dosages tested
